Article doi:10.1101/2020.07.08.194076v1 (biorxiv, 2020)

Tested on: SlG3
Experiment: GGPPS enzyme assay
Type: biochemical, Solanum lycopersicum

Km (co-substrate 100 µM IPP)	Km (co-substrate 100 µM DMAPP)	SMILES
45.8 ± 6.81 µM		CC(C)=CCOP(=O)(O)OP(=O)(O)O [DMAPP]
	45.9 ± 4.86 µM	C=C(C)CCOP(=O)(O)OP(=O)(O)O [IPP]
